Values of other authors in patent US20080152709A1, “CLONIDINE COMPOSITION AND METHOD OF USE” (DRUGTECH CORPORATION, priority 2006, published 2008).
Counter-ions that a name gives are not always drawn. Like-named read-outs stand apart in the source and are kept apart here.

Key:
[1] = not given; remark: listed apart in the source
[2] = administered orally
[3] = once daily oral 0.25 and 0.5 mg, sustained-release formulation
[4] = oral 0.075 mg twice daily for three days; third day
[5] = not given; remark: listed apart in the source
[6] = system: patients with morning hypertension; settings: once daily in the evening, added to pre-existing antihypertensive regimen
[7] = oral administration of 0.3 mg
[8] = single oral dose of 0.3 mg clonidine hydrochloride
[9] = single oral dose of 0.3 mg, all subjects

Structure (SMILES) | mean maximum plasma concentration [8] [ng/mL] | time of mean maximum concentration after administration [8] [h] | plasma concentration at 24 hours (single oral dose of 0.3 mg clonidine hydrochloride, 24 hours) | salivary flow (dry mouth symptoms) [9] | sedation [9] | peak clonidine concentration (Cmax) ([1]; single oral dose 0.075 mg) [ng/mL] | plasma concentration 24 hours after administration ([1]; single oral dose 0.075 mg) [ng/mL] | peak clonidine concentration (Cmax) ([1]; single oral dose 0.15 mg) [ng/mL] | plasma concentration 24 hours after administration ([1]; single oral dose 0.15 mg) [ng/mL] | peak clonidine concentration (Cmax) ([1]; single oral dose 0.25 mg) [ng/mL] | plasma concentration 24 hours after administration ([1]; single oral dose 0.25 mg) [ng/mL] | absorption from the gastrointestinal tract [2] | 24-hour antihypertensive efficacy [3] | peak clonidine concentration [4] [ng/mL] | effect on diastolic blood pressure ([5]; 0.1 mg administered at 4 pm or 8 pm) | effect on diastolic blood pressure ([5]; 0.1 mg administered at 6 am or 12 noon) | morning blood pressure [6] | peak plasma clonidine concentration [7] [ng/mL]
Clc1cccc(Cl)c1N=C1NCCN1 [clonidine hydrochloride] | 1.35 | 1 | below 0.5 ng/ml | marked reduction in salivary flow | markedly sedated |  |  |  |  |  |  |  |  |  |  |  |  | 
Clc1cccc(Cl)c1NC1=NCCN1 [clonidine, N-(2,6-dichlorophenyl)-4,5-dihydro-1H-imidazol-2-amine] |  |  |  |  |  | 0.28 | 0.06 | 0.61 | 0.07 | 1.16 | 0.34 | almost completely absorbed | Reduction in blood pressure was observed throughout the 24 hours | 0.39 | not | reduced diastolic blood pressure | effective in reducing morning blood pressure | 1.34
